Measured values reported in patent US10278950B2, “Therapeutic agents containing cannabis flavonoid derivative for ocular disorders” (priority 2015, dated 2019).

Target: T1, BIKE (BMP2K) kinase (Homo sapiens, UniProt Q9NSY1)
T1 construct: made in house
Experiment: Kinase inhibition assay (competition binding assay)
Conditions: qualitative statement; dose response curve only in FIG. 3, no values given
Description: Cannabis flavonoids and their analogs were subjected to kinase inhibition assay. The compounds were first screened at a single concentration of 10 μM in the primary assay. Compounds inhibiting at least 70% of specific kinases were subjected to further screening to determine kd values. To determine the kd values, competition binding assays were established, authenticated and executed as described previously (Fabian et al., 2005, Karaman et al., 2008). For most assays, kinases were fused to T7 phage strains (Fabian et al. 2005) and for the other assays, kinases were produced in HEK-293 cells after which they were tagged with DNA for quantitative PCR detection (data not shown). In general, full-length constructs were used for small, single domain kinases, and catalytic domain constructs for large multi-domain kinases. The binding assays utilized streptavidin-coated magnetic beads treated with biotinylated small molecule ligands for 30 minutes at room temperature which generated affinity resins for the kinase assays. The liganded beads were blocked with excess biotin and washed with blocking buffer (SeaBlock (Pierce), 1% BSA, 0.05% Tween 20, 1 mM DTT) to remove unbound ligand and to reduce non-specific phage binding. Binding reactions were assembled by combining kinases, liganded affinity beads, and test compounds in 1× binding buffer (20% SeaBlock, 0.17×PBS, 0.05% Tween 20, 6 mM DTT). Test compounds were prepared as 40× stocks in 100% DMSO and diluted directly into the assay (Final DMSO concentration=2.5%). All reactions were performed in polypropylene 384-well plates in a final volume of 0.04 ml. The assay plates were incubated at room temperature with shaking for 1 hour and the affinity beads were washed with wash buffer (1×PBS, 0.05% Tween 20). The beads were then re-suspended in elution buffer (1×PBS, 0.05% Tween 20, 0.5 μM non-biotinylated affinity ligand) and incubated at room temperature with shaking for 30 minutes. The kinase concentration in the eluates was measured by quantitative PCR. Kd values were determined using a standard dose response curve using the hill equation. Curves were fitted using a non-linear least square fit with the Levenberg-Marquardt algorithm.

T1 sequence (Q9NSY1 whole entry): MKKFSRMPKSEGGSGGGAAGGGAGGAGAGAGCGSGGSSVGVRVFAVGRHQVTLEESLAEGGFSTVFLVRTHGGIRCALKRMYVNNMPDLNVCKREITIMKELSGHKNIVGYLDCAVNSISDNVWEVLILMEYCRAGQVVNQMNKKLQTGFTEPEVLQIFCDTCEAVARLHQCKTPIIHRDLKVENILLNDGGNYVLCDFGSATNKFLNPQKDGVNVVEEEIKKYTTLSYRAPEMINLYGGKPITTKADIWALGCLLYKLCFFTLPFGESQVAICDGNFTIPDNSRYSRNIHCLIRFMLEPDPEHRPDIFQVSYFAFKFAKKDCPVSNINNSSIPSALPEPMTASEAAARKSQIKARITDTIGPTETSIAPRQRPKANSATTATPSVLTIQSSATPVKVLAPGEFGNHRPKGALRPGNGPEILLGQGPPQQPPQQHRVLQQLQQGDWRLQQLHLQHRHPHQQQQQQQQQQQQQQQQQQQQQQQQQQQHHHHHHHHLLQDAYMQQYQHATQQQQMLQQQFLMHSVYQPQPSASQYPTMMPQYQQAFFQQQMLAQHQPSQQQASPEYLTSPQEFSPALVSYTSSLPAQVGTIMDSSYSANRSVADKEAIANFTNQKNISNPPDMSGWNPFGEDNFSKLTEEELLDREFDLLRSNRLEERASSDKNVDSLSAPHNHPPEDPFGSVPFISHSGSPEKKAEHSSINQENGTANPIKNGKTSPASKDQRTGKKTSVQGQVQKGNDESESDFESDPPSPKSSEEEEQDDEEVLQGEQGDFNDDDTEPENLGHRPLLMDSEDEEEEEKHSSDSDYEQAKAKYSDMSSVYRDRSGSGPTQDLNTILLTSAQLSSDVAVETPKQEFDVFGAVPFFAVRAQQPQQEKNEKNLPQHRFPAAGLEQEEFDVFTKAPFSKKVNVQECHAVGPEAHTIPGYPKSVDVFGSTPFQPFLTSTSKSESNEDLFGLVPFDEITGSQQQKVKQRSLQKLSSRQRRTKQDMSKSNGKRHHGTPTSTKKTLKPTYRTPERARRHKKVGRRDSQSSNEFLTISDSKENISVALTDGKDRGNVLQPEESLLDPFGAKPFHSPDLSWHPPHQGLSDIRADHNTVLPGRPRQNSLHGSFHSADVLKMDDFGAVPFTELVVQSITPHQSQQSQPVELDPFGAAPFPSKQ

Row | SMILES | ability to inhibit the BMP2K kinase
1 | COc1cc(-c2cc(=O)c3c(O)c(C/C=C(\C)CCC=C(C)C)c(O)cc3o2)ccc1O [cannflavin A] | demonstrated ability to inhibit
2 | COc1cc(-c2cc(=O)c3c(O)c(CC=C(C)C)c(O)cc3o2)ccc1O [cannflavin B] | demonstrated ability to inhibit
3 | COc1cc(-c2cc(=O)c3c(O)cc(O)c(C/C=C(\C)CCC=C(C)C)c3o2)ccc1O [cannflavin C] | demonstrated ability to inhibit
4 | COc1cc(-c2cc(=O)c3c(O)cc(O)c(CC=C(C)C)c3o2)ccc1O [isocannflavin B] | demonstrated ability to inhibit
